{"source": "patent US20260293949A1", "about": "“CARBONATION SENSATION IMPARTING OR ENHANCING AGENT” (TAKASAGO INTERNATIONAL CORPORATION, priority 2022, published 2026)", "key": {"[1]": {"test": "Sensory evaluation of carbonation sensation imparting in cola-flavored compressed tablet candy", "format": "in vivo", "details": "for Carbonation sensation imparting evaluation result: compressed tablet candy, average score of six panelists, 1 to 5", "description": "(§1) In the following Examples, the action and effect were verified using a value obtained by calculating an average score of scores for imparting or enhancing fizziness by sensory evaluation conducted by specialized panelists. The expression “1 point” in the evaluation is the evaluation in the case where no component is added at all (no addition).\nDiethyl sebacate was separately added to a cola-flavored compressed tablet candy prepared according to the formulation shown in Table 14 using a pestle with a diameter of 7 mm, so as to reach a concentration shown in Table 15 below, and sensory evaluation was performed by six panelists to determine the extent to which fizziness was imparted as compared with a control in which diethyl sebacate was not added."}, "[2]": {"test": "Sensory evaluation of fizziness enhancement in carbonated water (WILKINSON TANSAN), specialized panelists", "format": "in vivo", "details": "for Fizziness enhancement evaluation result: average score of seven panelists, 1 to 5", "description": "as §1\nDiethyl sebacate (manufactured by Inoue Perfumery Mfg. Co., Ltd., the same applies to the following Examples) was separately added to “WILKINSON (registered trademark) TANSAN (manufactured by Asahi Soft Drinks Co., Ltd.)” so as to reach the concentrations shown in Table 2 below, and sensory evaluation was performed by seven specialized panelists to determine the extent to which fizziness was enhanced as compared with a control in which diethyl sebacate was not added.\nDiisobutyl adipate (manufactured by Inoue Perfumery Mfg. Co., Ltd., the same applies to the following Examples) was separately added to “WILKINSON (registered trademark) TANSAN (manufactured by Asahi Soft Drinks Co., Ltd.)” so as to reach the concentrations shown in Table 3 below, and sensory evaluation was performed by seven specialized panelists to determine the extent to which fizziness was enhanced as compared with a control in which diisobutyl adipate was not added.\nDimethyl sebacate (manufactured by Tokyo Chemical Industry Co., Ltd.) was separately added to “WILKINSON (registered trademark) TANSAN (manufactured by Asahi Soft Drinks Co., Ltd.)” so as to reach the concentrations shown in Table 4 below, and sensory evaluation was performed by seven specialized panelists to determine the extent to which fizziness was enhanced as compared with a control in which dimethyl sebacate was not added.\nDipropyl adipate (manufactured by Tokyo Chemical Industry Co., Ltd.) was separately added to “WILKINSON (registered trademark) TANSAN (manufactured by Asahi Soft Drinks Co., Ltd.)” so as to reach the concentrations shown in Table 5 below, and sensory evaluation was performed by seven specialized panelists to determine the extent to which fizziness was enhanced as compared with a control in which dipropyl adipate was not added."}, "human TRPV1": {"biological_target": "T1, human TRPV1 (Homo sapiens, UniProt Q8NER1)", "T1 construct": "doxycycline-inducible Flp-In T-REx 293 cells; Fluo-4 calcium assay", "T1 sequence (Q8NER1 whole entry)": "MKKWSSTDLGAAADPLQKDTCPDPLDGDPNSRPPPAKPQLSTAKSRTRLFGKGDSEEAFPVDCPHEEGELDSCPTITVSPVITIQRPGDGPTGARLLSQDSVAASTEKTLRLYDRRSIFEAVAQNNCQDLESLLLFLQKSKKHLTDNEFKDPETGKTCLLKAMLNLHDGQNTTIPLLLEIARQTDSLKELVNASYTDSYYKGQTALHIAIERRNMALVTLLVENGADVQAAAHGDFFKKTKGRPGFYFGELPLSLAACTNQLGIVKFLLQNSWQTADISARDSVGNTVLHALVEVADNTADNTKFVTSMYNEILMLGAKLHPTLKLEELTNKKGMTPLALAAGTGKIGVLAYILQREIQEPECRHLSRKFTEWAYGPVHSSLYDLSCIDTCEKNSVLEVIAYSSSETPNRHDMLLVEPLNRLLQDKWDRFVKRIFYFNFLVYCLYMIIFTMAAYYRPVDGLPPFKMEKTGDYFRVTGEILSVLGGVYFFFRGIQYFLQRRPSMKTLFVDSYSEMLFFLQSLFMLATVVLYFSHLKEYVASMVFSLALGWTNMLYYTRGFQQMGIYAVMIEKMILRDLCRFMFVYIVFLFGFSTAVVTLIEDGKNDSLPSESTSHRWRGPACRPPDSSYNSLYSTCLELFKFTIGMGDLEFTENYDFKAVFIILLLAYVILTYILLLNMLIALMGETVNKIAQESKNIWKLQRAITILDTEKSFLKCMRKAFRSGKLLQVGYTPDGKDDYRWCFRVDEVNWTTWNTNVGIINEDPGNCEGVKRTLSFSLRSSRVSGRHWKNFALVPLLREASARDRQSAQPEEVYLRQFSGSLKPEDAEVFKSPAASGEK", "test": "Evaluation of human TRPV1 activity in stably expressing cells (Fluo 4-AM calcium fluorescence)", "format": "cell-based", "details": "human TRPV1 stably expressing Flp-In 293 cells; fluorescence 485/525 nm, 27° C.", "source_text": "The full-length human TRPA1 gene (GenBank Accession Number: NM_007332) was amplified from plasmid pFN21AB7348 (manufactured by Kazusa DNA Research Institute), and the full-length human TRPV1 gene (GenBank Accession Number: NM_018727) was amplified from pFN21AE2418 (manufactured by Kazusa DNA Research Institute) using PCR. The obtained PCR product was subcloned into pcDNA5/FRT/TO (manufactured by ThermoFisher Scientific), and then introduced into Flp-In 293 cells (manufactured by Thermo Fisher Scientific) using a Flp-In T-REX system (manufactured by Thermo Fisher Scientific) to prepare a human TRPA1 stably expressing cell line and a human TRPV1 stably expressing cell line […]\nAfter replacing the culture medium with buffer solution, fluorescent calcium indicator Fluo 4-AM (manufactured by Dojindo Laboratories) was added and incubated at 37° C. for 1 hour. After replacing the culture solution with buffer solution again, the microplate was set to a fluorescence microplate reader FlexStation 3 (manufactured by Molecular Devices, LLC.). Diethyl sebacate was added at various concentrations at an internal temperature of 27° C., and the fluorescence intensity at a wavelength of 525 nm when excited at a wavelength of 485 nm was measured. […]"}}, "note": "Entries after “also recorded” stand apart in the source; their conditions may differ.", "data": [{"molecule": "CCOC(=O)CCCCCCCCC(=O)OCC", "note": "[Diethyl sebacate, diethyl sebacate]", "values": [{"measurement": "Carbonation sensation imparting evaluation result", "setting": "[1]; 0.1 ppm", "value": 1.5, "unit": "points"}, {"measurement": "Carbonation sensation imparting evaluation result", "setting": "[1]; 1 ppm", "value": 2.2, "unit": "points"}, {"measurement": "Carbonation sensation imparting evaluation result", "setting": "[1]; 10 ppm", "value": 2.5, "unit": "points"}, {"measurement": "Carbonation sensation imparting evaluation result", "setting": "[1]; 100 ppm", "value": 4.0, "unit": "points"}, {"measurement": "Carbonation sensation imparting evaluation result", "setting": "[1]; 1000 ppm", "value": 3.0, "unit": "points"}, {"measurement": "Carbonation sensation imparting evaluation result", "setting": "[1]; 10000 ppm", "value": 1.5, "unit": "points"}, {"measurement": "Carbonation sensation imparting evaluation result", "setting": "[1]; 20000 ppm", "value": 1.2, "unit": "points"}, {"measurement": "amelioration of mouthfeel (in words)", "setting": "[1]; compressed tablet candies", "value": "effect of ameliorating the mouthfeel was also confirmed"}, {"measurement": "fizziness imparting (in words)", "setting": "[1]; compressed tablet candies", "value": "fizziness can be imparted to compressed tablet candies"}, {"measurement": "amelioration of mouthfeel (in words)", "setting": "[2]", "value": "effect of ameliorating the mouthfeel was also confirmed"}, {"measurement": "fizziness enhancement (in words)", "setting": "[2]", "value": "fizziness of carbonated water can be enhanced"}, {"measurement": "Fizziness enhancement evaluation result", "setting": "[2]; 0.1 ppm", "value": 1.1, "unit": "points"}, {"measurement": "Fizziness enhancement evaluation result", "setting": "[2]; 0.3 ppm", "value": 2.1, "unit": "points"}, {"measurement": "Fizziness enhancement evaluation result", "setting": "[2]; 1 ppm", "value": 3.7, "unit": "points"}, {"measurement": "Fizziness enhancement evaluation result", "setting": "[2]; 5 ppm", "value": 4.6, "unit": "points"}, {"measurement": "Fizziness enhancement evaluation result", "setting": "[2]; 10 ppm", "value": 4.5, "unit": "points"}, {"measurement": "Fizziness enhancement evaluation result", "setting": "[2]; 20 ppm", "value": 2.5, "unit": "points"}, {"measurement": "Fizziness enhancement evaluation result", "setting": "[2]; 50 ppm", "value": 2.1, "unit": "points"}, {"measurement": "Fizziness enhancement evaluation result", "setting": "[2]; 100 ppm", "value": 1.7, "unit": "points"}, {"measurement": "TRPV1 activity", "setting": "human TRPV1", "value": "high TRPA1 activity and TRPV1 activity; also recorded: respond"}]}]}
